IC50 data for 27 molecules are collected here from patent US20230167103A1 (Bayer Aktiengesellschaft, priority 2020, published 2023).

Like-named read-outs stand apart in the source and are kept apart here.

This assay concerns the target T1, human DGKζ (Homo sapiens, UniProt Q13574).
T1 construct: made in house; host or cells: Sf9 insect cells, baculovirus
The assay is described as follows: Human DGKζ kinase activity inhibition assay (ADP-Glo). The assay is classed as biochemical. In short, it runs like this: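 Enzyme was C-terminally FLAG-tagged full-length human DGKζ from baculovirus-infected insect cells, typically about 0.1 nM, with 1,2-dioleoyl-sn-glycerol in octyl-β-D-glucopyranoside micelles as substrate. ADP formed was detected by ADP-Glo luminescence; data normalised to no-inhibitor (0%) and no-enzyme (100%) controls.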

Setting [1] is: example compounds, recombinant full-length human DGKζ, 1,2-dioleoyl-sn-glycerol 7 μM, ATP 55 μM, 20 min at 22° C., read-out: IC50 values of examples in in vitro human DGKζ kinase activity inhibition assays.

T1 sequence (Q13574 with tags, fused parts or gaps): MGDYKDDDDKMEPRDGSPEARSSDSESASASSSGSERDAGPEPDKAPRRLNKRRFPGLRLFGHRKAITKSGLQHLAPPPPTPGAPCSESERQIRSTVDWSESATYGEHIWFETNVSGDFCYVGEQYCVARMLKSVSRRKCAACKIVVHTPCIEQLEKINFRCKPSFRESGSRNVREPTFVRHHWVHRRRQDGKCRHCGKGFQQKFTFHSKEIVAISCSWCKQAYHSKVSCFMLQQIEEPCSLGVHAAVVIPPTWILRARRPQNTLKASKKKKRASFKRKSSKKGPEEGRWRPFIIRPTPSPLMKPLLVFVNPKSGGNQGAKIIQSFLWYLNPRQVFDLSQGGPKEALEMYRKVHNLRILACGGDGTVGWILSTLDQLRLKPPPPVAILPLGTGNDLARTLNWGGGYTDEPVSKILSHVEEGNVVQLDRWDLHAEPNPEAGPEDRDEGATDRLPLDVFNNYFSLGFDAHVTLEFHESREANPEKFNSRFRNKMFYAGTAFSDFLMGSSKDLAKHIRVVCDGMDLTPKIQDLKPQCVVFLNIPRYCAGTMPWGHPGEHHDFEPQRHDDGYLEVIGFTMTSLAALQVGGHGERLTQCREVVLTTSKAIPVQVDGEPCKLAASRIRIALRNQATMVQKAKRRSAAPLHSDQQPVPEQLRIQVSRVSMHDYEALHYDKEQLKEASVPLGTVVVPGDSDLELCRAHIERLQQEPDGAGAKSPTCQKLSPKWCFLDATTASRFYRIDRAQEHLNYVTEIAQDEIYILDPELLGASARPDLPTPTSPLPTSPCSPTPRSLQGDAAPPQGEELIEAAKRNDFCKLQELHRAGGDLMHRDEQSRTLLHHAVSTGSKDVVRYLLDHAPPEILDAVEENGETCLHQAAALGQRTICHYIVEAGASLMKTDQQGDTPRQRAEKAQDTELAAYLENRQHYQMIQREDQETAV

“rac-5-[4-amino-2-(N-(2-amino-1-methyl-2-oxo-ethyl)-4-fluoro-anilino)thiazole-5-carbonyl]-N-(2-pyridyl)isoxazole-3-carboxamide [Example 28]”: for the setting “intermediates (comparative, lacking the R2 alkyl-carboxamide group), same assay conditions, read-out: IC50 values of intermediates in in vitro human DGKζ kinase activity inhibition assays”, the IC50 came out at 19400 nM.

On to `CC(C(N)=O)N(c1ccc(F)cc1)c1nc(N)c(C(=O)c2nc(-c3ccc(Cl)cc3)no2)s1` (racemic) [Example 1, rac-2-(N-[4-amino-5-[3-(4-chlorophenyl)-1,2,4-oxadiazole-5-carbonyl]thiazol-2-yl]-4-fluoro-anilino)propanamide], for which the IC50 under setting [1] amounted to 9 nM.

In the case of `CC(C(N)=O)N(c1ccc(F)cc1)c1nc(N)c(C(=O)c2cc(COC(=O)Nc3ccccc3)no2)s1` (racemic) [Example 66, rac-[5-[4-amino-2-(N-(2-amino-1-methyl-2-oxo-ethyl)-4-fluoro-anilino)thiazole-5-carbonyl]isoxazol-3-yl]methyl N-phenylcarbamate], the IC50 under setting [1] came out at 29 nM.

For the molecule `CC(C(N)=O)N(c1ccc(F)cc1)c1nc(N)c(C(=O)c2cc(C(=O)NC3CCCC3(C)C)no2)s1` (racemic) [Example 37, 5-[4-amino-2-(N-(2-amino-1-methyl-2-oxo-ethyl)-4-fluoro-anilino)thiazole-5-carbonyl]-N-(2,2-dimethylcyclopentyl)isoxazole-3-carboxamide], the IC50 under setting [1] is 43 nM.

As to `CC(C(N)=O)N(c1ccc(F)cc1)c1nc(N)c(C(=O)c2cc(C(=O)NC3CCCC3)no2)s1` (racemic) [Example 25, rac-5-[4-amino-2-(N-(2-amino-1-methyl-2-oxo-ethyl)-4-fluoro-anilino)thiazole-5-carbonyl]-N-cyclopentyl-isoxazole-3-carboxamide], the half-inhibitory concentration (IC50) under setting [1] worked out at 134 nM.

As for `CC(C(N)=O)N(c1ccc(F)cc1)c1nc(N)c(C(=O)c2cc(C(=O)NC3CCC(C)(C)C3)no2)s1` (racemic) [Example 43, 5-[4-amino-2-(N-(2-amino-1-methyl-2-oxo-ethyl)-4-fluoro-anilino)thiazole-5-carbonyl]-N-(3,3-dimethylcyclopentyl)isoxazole-3-carboxamide], the concentration for half-maximal inhibition (IC50) under setting [1] was 94 nM.

Take `CC(C)c1noc(C(=O)c2sc(N(c3ccc(F)cc3)C(C)C(N)=O)nc2N)n1` (racemic) [Example 49, rac-2-(N-[4-amino-5-(3-isopropyl-1,2,4-oxadiazole-5-carbonyl)thiazol-2-yl]-4-fluoro-anilino)propanamide]: under setting [1], the IC50 was found to be 28 nM.

Turning to `COc1ccccc1-c1cc(C(=O)c2sc(N(c3ccc(F)cc3)C(C)C(N)=O)nc2N)on1` (racemic) [Example 70, rac-2-(N-[4-amino-5-[3-(2-methoxyphenyl)isoxazole-5-carbonyl]thiazol-2-yl]-4-fluoro-anilino)propanamide], the IC50 under setting [1] is 27 nM.

Take `CC(C(N)=O)N(c1ccc(F)cc1)c1nc(N)c(C(=O)c2cc(C(=O)NC(CF)CF)no2)s1` (racemic) [Example 40, rac-5-[4-amino-2-(N-(2-amino-1-methyl-2-oxo-ethyl)-4-fluoro-anilino)thiazole-5-carbonyl]-N-[2-fluoro-1-(fluoromethyl)ethyl]isoxazole-3-carboxamide]: the IC50 under setting [1] was found to be 204 nM.

`CC(C(N)=O)N(c1ccc(F)c(F)c1)c1nc(N)c(C(=O)c2cc(C(=O)NC3CC(F)(F)C3)no2)s1` (single isomer, unassigned) [Example 45.2, 5-[4-amino-2-(N-(2-amino-1-methyl-2-oxo-ethyl)-3,4-difluoro-anilino)thiazole-5-carbonyl]-N-(3,3-difluorocyclobutyl)isoxazole-3-carboxamide]: under setting [1], the concentration for half-maximal inhibition (IC50) stood at 1270 nM.

In the case of `CC(C(N)=O)N(c1ccc(F)cc1)c1nc(N)c(C(=O)c2cc(C(=O)NC34CC(C3)C4)no2)s1` (racemic) [Example 31, rac-5-[4-amino-2-(N-(2-amino-1-methyl-2-oxo-ethyl)-4-fluoro-anilino)thiazole-5-carbonyl]-N-(1-bicyclo[1.1.1]pentanyl)isoxazole-3-carboxamide], the IC50 under setting [1] was determined as 193 nM.

Turning to `CC(C(N)=O)N(c1ccc(F)cc1)c1nc(N)c(C(=O)c2cc(-c3ccc(OC(F)(F)F)cc3)no2)s1` (racemic) [Example 69, rac-2-(N-[4-amino-5-[3-[4-(trifluoromethoxy)phenyl]isoxazole-5-carbonyl]thiazol-2-yl]-4-fluoro-anilino)propanamide], the IC50 under setting [1] turned out to be 117 nM.

`CC(C(N)=O)N(c1ccc(F)cc1)c1nc(N)c(C(=O)c2cc(CO)no2)s1` (racemic) [Example 65, rac-2-(N-[4-amino-5-[3-(hydroxymethyl)isoxazole-5-carbonyl]thiazol-2-yl]-4-fluoro-anilino)propanamide]: the IC50 under setting [1] worked out at 751 nM.

Consider `CC(C(N)=O)N(c1ccc(F)cc1)c1nc(N)c(C(=O)c2cc(C(=O)Nc3cccnc3)no2)s1` (racemic) [Example 20, rac-5-[4-amino-2-(N-(2-amino-1-methyl-2-oxo-ethyl)-4-fluoro-anilino)thiazole-5-carbonyl]-N-(3-pyridyl)isoxazole-3-carboxamide], for which the 50% inhibitory concentration (IC50) under setting [1] was 300 nM.

In the case of `CC(C(N)=O)N(c1ccc(F)c(F)c1)c1nc(N)c(C(=O)c2cc(C(=O)NC3CCCC3)no2)s1` (racemic) [Example 46, rac-5-[4-amino-2-(N-(2-amino-1-methyl-2-oxo-ethyl)-3,4-difluoro-anilino)thiazole-5-carbonyl]-N-cyclopentyl-isoxazole-3-carboxamide], under setting [1], the half-inhibitory concentration (IC50) was found to be 77 nM.

On to `CC(C(N)=O)N(c1ccc(F)cc1)c1nc(N)c(C(=O)c2cc(CN3CC(F)C3)no2)s1` (racemic) [Example 73, rac-2-(N-[4-amino-5-[3-[(3-fluoroazetidin-1-yl)methyl]isoxazole-5-carbonyl]thiazol-2-yl]-4-fluoro-anilino)propanamide], for which the IC50 under setting [1] was 325 nM.

As to `CC(C(N)=O)N(c1ccc(F)c(F)c1)c1nc(N)c(C(=O)c2cc(C(=O)NC3(C)CCC3)no2)s1` (racemic) [Example 44, rac-5-[4-amino-2-(N-(2-amino-1-methyl-2-oxo-ethyl)-3,4-difluoro-anilino)thiazole-5-carbonyl]-N-(1-methylcyclobutyl)isoxazole-3-carboxamide], under setting [1], the IC50 was 59 nM.

As to `CC(C(N)=O)N(c1ccc(F)cc1)c1nc(N)c(C(=O)c2cc(CN3CCC(F)(F)C(C)C3)no2)s1` (mixture of isomers) [Example 76, 2-(N-[4-amino-5-[3-[(4,4-difluoro-3-methyl-1-piperidyl)methyl]isoxazole-5-carbonyl]thiazol-2-yl]-4-fluoro-anilino)propanamide], under setting [1], the IC50 was determined as 10 nM.

For the molecule `CC(C(N)=O)N(c1ccc(F)cc1)c1nc(N)c(C(=O)c2cc(C(=O)N[C@H]3C[C@@H](F)C3)no2)s1` (mixture of isomers) [Example 38, 5-[4-amino-2-(N-(2-amino-1-methyl-2-oxo-ethyl)-4-fluoro-anilino)thiazole-5-carbonyl]-N-(cis-3-fluorocyclobutyl)isoxazole-3-carboxamide], the IC50 under setting [1] was determined as 344 nM.

As to `CC(C(N)=O)N(c1ccc(F)cc1)c1nc(N)c(C(=O)c2cc(-c3ccccc3)no2)s1` (single isomer, unassigned) [Example 3.2, 2-(N-[4-amino-5-(3-phenylisoxazole-5-carbonyl)thiazol-2-yl]-4-fluoro-anilino)propanamide], under setting [1], the concentration for half-maximal inhibition (IC50) came out at 1750 nM.

As to `CC(C(N)=O)N(c1ccc(F)cc1)c1nc(N)c(C(=O)c2cc(C(=O)N3CCOCC3)no2)s1` (racemic) [Example 13, rac-2-(N-[4-amino-5-[3-(morpholine-4-carbonyl)isoxazole-5-carbonyl]thiazol-2-yl]-4-fluoro-anilino)propanamide], the half-inhibitory concentration (IC50) under setting [1] was 977 nM.

As to `CCOC(=O)c1cc(C(=O)c2sc(N(c3ccc(F)cc3)C(C)C(N)=O)nc2N)on1` (racemic) [Example 9, rac-Ethyl 5-[4-amino-2-(N-(2-amino-1-methyl-2-oxo-ethyl)-4-fluoro-anilino)thiazole-5-carbonyl]isoxazole-3-carboxylate], the half-inhibitory concentration (IC50) under setting [1] worked out at 189 nM.

For the molecule `CC(C(N)=O)N(c1ccc(F)cc1)c1nc(N)c(C(=O)c2cc(C(=O)NC3(C)CCC3)no2)s1` (single isomer, unassigned) [Example 30.2, 5-[4-amino-2-(N-(2-amino-1-methyl-2-oxo-ethyl)-4-fluoro-anilino)thiazole-5-carbonyl]-N-(1-methylcyclobutyl)isoxazole-3-carboxamide], the half-maximal inhibitory concentration (IC50) under setting [1] is 13400 nM.

For the molecule `CC(C(N)=O)N(c1ccc(F)cc1)c1nc(N)c(C(=O)c2cc(-c3ccc(Cl)cc3Cl)no2)s1` (racemic) [Example 4, rac-2-(N-[4-amino-5-[3-(2,4-dichlorophenyl)isoxazole-5-carbonyl]thiazol-2-yl]-4-fluoro-anilino)propanamide], the IC50 under setting [1] amounted to 37 nM.

As to `CC(C(N)=O)N(c1ccc(F)cc1)c1nc(N)c(C(=O)c2cc(C(=O)NCC3CC3)no2)s1` (racemic) [Example 22, rac-5-[4-amino-2-(N-(2-amino-1-methyl-2-oxo-ethyl)-4-fluoro-anilino)thiazole-5-carbonyl]-N-(cyclopropylmethyl)isoxazole-3-carboxamide], under setting [1], the half-inhibitory concentration (IC50) was determined as 182 nM.

As to `CC(C(N)=O)N(c1ccc(F)cc1)c1nc(N)c(C(=O)c2cc(C(=O)Nc3cnn(C)c3)no2)s1` (racemic) [Example 12, rac-5-[4-amino-2-(N-(2-amino-1-methyl-2-oxo-ethyl)-4-fluoro-anilino)thiazole-5-carbonyl]-N-(1-methylpyrazol-4-yl)isoxazole-3-carboxamide], the IC50 under setting [1] worked out at 938 nM.

As for `CC(NC(=O)c1cc(C(=O)c2sc(N(c3ccc(F)cc3)C(C)C(N)=O)nc2N)on1)C(F)F` (racemic) [Example 41, 5-[4-amino-2-(N-(2-amino-1-methyl-2-oxo-ethyl)-4-fluoro-anilino)thiazole-5-carbonyl]-N-(2,2-difluoro-1-methyl-ethyl)isoxazole-3-carboxamide], the concentration for half-maximal inhibition (IC50) under setting [1] is 134 nM.

As usually defined, the IC50 is the concentration that gives 50% inhibition.
